Measurements reported in PMC12114375, “Discovery of Hydrazineyl Amide Derivative of Pseudolaric Acid B for Reprogramming Tumor-Associated Macrophages Against Tumor Growth” (Molecules, 2025).
Read-outs that look alike come from different tables or passages of the source.

Assays:
[1] = tested on: NOS2 mRNA expression in RAW 264.7 cells; assay: qRT-PCR of NOS2 mRNA in IL-4/IL-13-stimulated RAW 264.7 cells; type: cell-based, mouse; details: Mus musculus, RAW264.7, IL-4/IL-13 (20 ng/mL) plus compound 10 μM, 12 h, stimulated control = 100%, mean ± SD, read-out: NOS2 mRNA Relative Expression (%)
Source text: We first investigated the impacts of a series of commercially available natural pseudolaric acids or their O-pyranosides (Figure 1) on the pro-tumoral phenotype of TAMs, which play a critical role in anti-tumor immune response modulation. […] In contrast, M1-biased macrophages combat tumor growth and bacterial infections by expressing inducible nitric oxide synthase 2 (NOS2), which catalyzes the production of nitric oxide (NO). Recognizing the pivotal roles of ARG1 and NOS2, we utilized these molecules as key biomarkers and effectors for assessing macrophage immune function. In our experiments, the mouse monocyte–macrophage leukemia cell line RAW 264.7 was induced with IL-4/IL-13 to acquire an M2-like pro-tumoral phenotype. Concurrently, the cells were treated with the pseudolaric acid-related natural products 1–7 at a concentration of 10 μM for 12 h. Additionally, PLX3397 was used as a positive control at a concentration of 0.5 μM. […] As shown in Table 1 and Figure S1A, pseudolaric acid B (1), its deacetoxyl analogue 2 (pseudolaric acid C), and β-D-glucoside 7 substantially attenuated the upregulation of ARG1 mRNA expression induced by IL-4/IL-13, with statistically significant effects. In contrast, bis-carboxylic acids analogs 4 (pseudolaric acid C2) and 6 (demethoxydeacetoxypseudolaric acid B) have no significant impact on ARG1 mRNA expression.
With these carboxylic acid-modified derivatives in hand, we investigated their impact at 10 μM on ARG1 and NOS2 mRNA expression in RAW 264.7 cells pre-stimulated with IL-4/IL-13 to evaluate the effects on the pro-tumor phenotype of macrophages. […] Further removal of one hydroxyl from the glycerol moiety 15 further enhanced the inhibitory effect on ARG1 expression but had no significant impact on NOS2 expression.
Total RNA was isolated from cells using the EZ-press RNA Purification Kit (EZBioscience, Suzhou, China) and subjected to reverse transcription with the 5×HiScript II qRT SuperMix II (Vazyme, Nanjing, China). PCR was performed with the 2×ChamQ Universal SYBR qPCR Master Mix (Vazyme, Nanjing, China). All primers for qRT-PCR are described in Table S1. The 2^−∆∆Ct method was utilized to calculate the fold change in gene expression, with the expression levels in the stimulated group set as the baseline for normalization.

[2] = In vivo pharmacokinetic study in mice; set-up: species or system ICR mice; details: 1 mg/kg i.v., mean ± SD
Experimental: To investigate the druggability of compound 12, the pharmacokinetic (PK) properties of 12 were examined in mice. The mice were treated with 12 intravenously (i.v.) at a dose of 1 mg/kg, and the resulting PK parameters were recorded.
ICR mice (n = 3) were administered with the test compound via intravenous injection at 1 mg/kg. Blood samples were collected 0.083, 0.25, 0.5, 1, 2, 4, 8, and 24 h after administration. An aliquot of 10 μL of the plasma sample was deproteinized with 200 μL of a MeOH: ACN = 1: 1 solution containing an internal standard. After centrifugation, the supernatant was injected for LC–MS/MS analysis. A standard set of parameters, including the area under the curve (AUC0–∞), elimination half-life (T1/2), time to reach the maximum plasma concentration (Tmax), maximum plasma concentration (Cmax), plasma clearance (Cl), and mean residence time (MRT), were calculated using WinNonlin software.

[3] = tested on: ARG1 protein expression in BMDMs; assay: Western blot of ARG1 protein in macrophages; type: cell-based, mouse; details: CSF-1-differentiated BMDMs, IL-4 and IL-13, 48 h, different concentrations
Experimental: We also extended the test to primary murine macrophages derived from bone marrow (BMDMs), which were cultured in vitro with recombinant mouse M-CSF for 6 days. The BMDMs were then stimulated with IL-4/IL-13, leading to their transformation into M2-like pro-tumoral macrophages. This transformation was characterized by an increase in both ARG1 and CD206 expression and a decrease in both NOS2 and MHC II expression. […] Subsequently, we assessed the capacity of compound 12 to inhibit the M2-like polarization of macrophages using CSF-1-differentiated mouse BMDMs. These cells were treated with IL-4 and IL-13 for 48 h, and the expression levels of CD206, an M2-type marker, and CD86, an M1-type marker, were analyzed via flow cytometry.
Total cellular protein was extracted using a 1 × SDS lysis buffer and denatured at 100 °C for 15 min. […]
Figure 2 Compound 12 inhibits the M2-like polarized phenotype of macrophages. […] The expression levels of the markers CD206 and CD86 on induced macrophages were determined by flow cytometry, and the mean fluorescence intensity (MFI) was analyzed with FlowJo (C), or the cells were lysed and immunoblotted to detect the indicated proteins (D). […] Data are represented as means ± SD. ^### p < 0.001 vs. non-stimulated control group, * p < 0.05, ** p < 0.01, *** p < 0.001 vs. stimulated control group. p-values were determined using one-way ANOVA.

**Q.** Which activity at 10 µM [1] does the source give for `COC(=O)C1=CC[C@@]23CC[C@@H]([C@@](C)(/C=C/C=C(\C)C(=O)NNCCO)OC2=O)[C@@]3(OC(C)=O)CC1` [compound 12, Methyl(3R,4S,4aS,9aR)-4a-acetoxy-3-((1E,3E)-5-(2-(2-hydroxyethyl)hydrazineyl)-4-methyl-5-oxopenta-1,3-dien-1-yl)-3-methyl-1-oxo-3,4,4a,5,6,9-hexahydro-1H-4,9a-ethanocyclohepta[c]pyran-7-carboxylate] here?
**A.** Its activity at 10 µM is 182 ± 5.3%.

**Q.** And the Tmax ([2]; n = 3, 1 mg/kg)?
**A.** The Tmax was 5 ± 0 min.

**Q.** And the AUC(0-inf) ([2]; ICR, mouse, plasma, iv, n = 3)?
**A.** Its AUC(0-inf) is 363 ± 29.4 ng·h/mL.

**Q.** What about the Cmax ([2]; ICR, mouse, plasma, iv, n = 3) of the same compound?
**A.** Its Cmax is 32.1 ± 11.7 ng/mL.

**Q.** What about the clearance ([2]; ICR, mouse, plasma, iv, n = 3) of the same compound?
**A.** The clearance was 46.1 mL/min/kg.

**Q.** And the half-life ([2]; ICR, mouse, plasma, iv, n = 3)?
**A.** The half-life was 40.2 ± 6.88 h.

**Q.** What about the MRT inf ([2]; ICR, mouse, plasma, iv, n = 3, read-out: MRT0–∞) of the same compound?
**A.** Its MRT inf is 63.1 ± 7.96 h.

**Q.** And the Tmax ([2]; ICR, mouse, plasma, iv, 1 mg/kg, n = 3, read-out: Tmax)?
**A.** Its Tmax is 4.98 min.

**Q.** And the “ARG1 protein expression (Western blot)” value [3]?
**A.** The value was “potent inhibitory activity at the protein level”.
